In US8206756B2, “Herbal composition for inflammatory disorders” (Piramal Life Sciences Limited, priority 2005, dated 2012):

Key:
[1] = tested on: VCAM-1; assay: Cell-ELISA for adhesion molecule expression in HUVECs: VCAM-1; format: cell-based; settings: Homo sapiens; TNF-α-induced surface expression, HUVEC
Experimental: (§1) The assay was designed on the basis of reference Transplantation, Vol 63(5), 759-764, 1997 with modifications.
(§2) Human Umbilical Vein Endothelial Cells (HUVECs) were obtained from Cascade Biologics and were maintained in M200 (Cascade Biologics, Portland, Oreg.) supplemented with low serum growth supplement (LSGS) at 37° C. in a 5% CO2 incubator. U937 cells (ATCC, Manassas, Va.) were grown in the RPMI 1640 medium supplemented with 10% FBS (Hyclone, Logan, Utah). Recombinant human TNFα, antibodies to VCAM-1, ICAM-1, E-Selectin were obtained from R&D Systems and LPS was obtained from Sigma (St. Louis, Mo.).
(§3) HUVECs were plated at […] in 96-well fibronectin-coated plates. The cells were stimulated with TNF-α (10 ng/ml) or LPS (1 μg/ml), 30 min after addition of test compound. After stimulation, cells (E-Selectin and ICAM-1) were fixed with paraformaldehyde in phosphate buffer saline (PBS). Non specific binding was blocked by 2% bovine serum albumin (BSA) in phosphate buffer saline (PBS) for 1 h, and the cells were incubated with primary antibody for 2 h. […] After washing, seven times, 3,3′5,5′-tetramethylbenzidine liquid substrate (TMB substrate) was added and the optical density of each well was determined at 450 nm using a microtitre plate reader (Spectramax, Molecular Devices, Calif.). […] Percent inhibition of the test sample compared to the control is evaluated. […]

[2] = tested on: Collagen-induced arthritis (CIA); assay: Collagen-induced arthritis (CIA) in DBA/1J mice; format: in vivo; settings: compared to vehicle treated group; H&E and Safranin O staining
Experimental: Male DBA/1J mice, aged 8-10 weeks, were immunized with 200 μg Collagen Type II as an emulsion in Freund's Complete Adjuvant, by an intradermal injection at the base of the tail. Twenty-one days later, the mice were administered a booster shot of 100 μg Collagen Type II. A set of naïve mice was also maintained alongside. From Day 23 onwards, the mice were assessed for the onset of rheumatoid arthritis using the Articular Index as a parameter. Mice with a minimum hind paw score of 2 were inducted into the study. Extract of example 1 was administered at a dose of 400 mpk (Milligram per kilogram body weight) by oral route twice daily for 12 days. Compound 1 was administered at a dose of 50 mpk and 100 mpk. by oral route twice daily for 12 days. Enbrel (3 mg/kg) was used as a standard and was given subcutaneous once daily. Paw volume and articular index were recorded daily. The data was analysed for statistical significance. On termination of the experiment the paws of the mice were processed for histopathological evaluation. Beneficial effect of extract of example 1 and compound 1 on pathology of arthritic (CIA) DBA/1J mice was evaluated. Microscopy was carried out after Hematoxylin and Eosin staining as well as Safranin O staining of synovial joints.

[3] = tested on: IL-6; assay: LPS-stimulated IL-6 release in hPBMCs (ELISA); format: cell-based; settings: Homo sapiens; LPS-stimulated hPBMC
Experimental: Primary screening—Human peripheral blood mononuclear cells (hPBMCs). TNF-α production by lipopolysaccharides (LPS) in hPBMCs was measured according to the method described by Jansky, L. et al (Physiol. Res. 52: 593-598, (2003)). Blood was collected from healthy donors into Potassium EDTA vacutainer tubes (BD vacutainer). The PBMCs were isolated using gradient centrifugation in Histopaque-1077 solution (Sigma). Isolated PBMCs were suspended in RPMI 1640 culture medium (Gibco BRL, Pasley, UK) containing 10% fetal bovine serum (FBS) (Hyclone, Utah, USA), 100 U/ml penicillin (Sigma Chemical Co. St Louis, Mo.) and 100 μg/ml streptomycin (Sigma Chemical Co. St Louis, Mo.). The cell concentration was adjusted to 1×10^6 cells/ml. The viability as determined by trypan blue dye exclusion was uniformly ≧98%. […] The % inhibition was recorded. Percent cytotoxicity of the test samples compared to control was evaluated.
The effect of the plant extract on the proinflammatory cytokines: TNF-α, interleukin-1β (IL-1β), interleukin-6 (IL-6) and interleukin-8 (IL-8) was measured using the supernatants generated in the primary screening assay. […]
The effect of the Compound 1, on the proinflammatory cytokines: TNF-α interleukin-1β (IL-1β), interleukin-6 (IL-6) and interleukin-8 (IL-8) was measured using the supernatants generated in the primary screening assay. […]

[4] = tested on: ICAM-1; assay: Cell-ELISA for adhesion molecule expression in HUVECs: ICAM-1; format: cell-based; settings: Homo sapiens; TNF-α-induced surface expression, HUVEC
Experimental: as §1, §2, §3

In the case of `C=C1C(=O)OC2C3=C(C)CCCC3(C)CCC12O` (stereo not shown) [Compound 1, 3a-hydroxy-5a,9-dimethyl-3-methylene-3a,4,5,5a,6,7,8,9b-octahydro-3H-naphtho[1,2-b]furan-2-one], the IC50 [1] is reported as 400 nM, the “Histopathological analysis of synovial joints” value [2] is reported as “beneficial effects in terms of reducing cartilage destruction, bone destruction and synovitis” and the IC50 [3] is reported as 1600 nM. For the same compound, the IC50 [4] was 520 nM.
